Test results published in US7939467B2, “4-(3-aminobenzoyl)-1-ethylpyrazoles and their use as herbicides” (Bayer CropScience AG, priority 2007, dated 2011).

How the values were obtained:
Assay in all cases: Herbicidal action against harmful plants, greenhouse pot test (comparative tables)
Type in all cases: in vivo
Setaria viridis = settings: scored 3-4 weeks after treatment
Excerpt: (§1) Seeds or rhizome pieces of mono- and dicotyledonous harmful plants are placed in sandy loam in pots of a diameter of 9 to 13 cm and covered with soil. The herbicides, formulated as emulsifiable concentrates or dusts, are applied to the surface of the covering soil in the form of aqueous dispersions or suspensions or emulsions at an application rate of 300 to 800 l of water/ha (converted), at various dosages. For further cultivation of the plants, the pots are then kept in a greenhouse under optimum conditions. The visual scoring of the damage to the harmful plants is carried out 3-4 weeks after the treatment. As shown by the results of these comparative tables, the selected compounds according to the invention have better herbicidal activity against a broad spectrum of economically important mono- and dicotyledonous harmful plants than the compounds disclosed in the prior art.
(§2) Seeds of mono- and dicotyledonous harmful plants are placed in sandy loam in cardboard pots, covered with soil and grown in the greenhouse under good growth conditions. Two to three weeks after sowing, the test plants are treated at the three-leaf stage. The compounds according to the invention, which are formulated as wettable powders or as emulsion concentrates, are sprayed at an application rate of 600 to 800 l of water/ha (converted) in a dosage stated in tables 1 to 5 onto the surface of the green plant parts. After the test plants have been left to stand in the greenhouse for 3 to 4 weeks under optimum growth conditions, the action of the compounds according to the invention is scored in comparison to compounds disclosed in the prior art. As shown by the results of these comparison tables, the selected compounds according to the invention have better herbicidal activity against a broad spectrum of economically important mono- and dicotyledonous harmful plants than the compounds disclosed in the prior art.

Veronica persica = settings: scored 3-4 weeks after treatment
Excerpt: as §1, §2

Echinochloa crus galli = settings: 80 g a.i./ha; scored 3-4 weeks after treatment; comparative table 2
Excerpt: as §1, §2

Polygonum convolvulus = settings: scored 3-4 weeks after treatment
Excerpt: as §1, §2

Matricaria inodora = settings: 320 g a.i./ha; scored 3-4 weeks after treatment; comparative table 1
Excerpt: as §1, §2

Viola tricolor = settings: 320 g a.i./ha; scored 3-4 weeks after treatment; comparative table 1
Excerpt: as §1, §2

[1] = 320 g a.i./ha, comparative table 3
[2] = 80 g a.i./ha, comparative table 2
[3] = 320 g a.i./ha, comparative table 1

Row | SMILES | Activity against harmful plants SETVI (Setaria viridis; [1]) [%] | Activity against harmful plants VERPE (Veronica persica; [1]) [%] | Activity against harmful plants SETVI (Setaria viridis; [2]) [%] | Activity against harmful plants VERPE (Veronica persica; [2]) [%] | Activity against harmful plants ECHCG (Echinochloa crus galli) [%] | Activity against harmful plants POLCO (Polygonum convolvulus; [2]) [%] | Activity against harmful plants MATIN (Matricaria inodora) [%] | Activity against harmful plants POLCO (Polygonum convolvulus; [3]) [%] | Activity against harmful plants VIOTR (Viola tricolor) [%]
1 | CCn1ncc(C(=O)c2ccc(S(C)(=O)=O)c(NCC3CC3)c2Cl)c1O | 80 | 70 |  |  |  |  |  |  | 
2 | CCn1ncc(C(=O)c2ccc(S(C)(=O)=O)c(NCC3CC3)c2C)c1O | 100 | 90 |  |  |  |  |  |  | 
3 | CCn1ncc(C(=O)c2ccc(S(C)(=O)=O)c(N(C)CCCOC)c2C)c1O |  |  | 90 | 90 | 90 | 80 |  |  | 
4 | CCn1ncc(C(=O)c2ccc(S(C)(=O)=O)c(N(C)CCCOC)c2Cl)c1O |  |  | 0 | 60 | 40 | 30 |  |  | 
5 | CCOCCNc1c(S(C)(=O)=O)ccc(C(=O)c2cnn(CC)c2O)c1C |  |  |  |  |  |  | 90 | 70 | 90
6 | CCOCCNc1c(S(C)(=O)=O)ccc(C(=O)c2cnn(CC)c2O)c1Cl |  |  |  |  |  |  | 0 | 0 | 70
